Assay results reported in the NIST ThermoML archive (doi:10.1021/je049893r).
± gives the expanded uncertainty stated by the source.

Conditions: Liquid, Vibrating tube method

## CCCCOCCOCCO [3,6-dioxa-1-decanol]
283.15 K, 100 kPa
  mass density: 960.5 ± 0.5 kg/m3
283.15 K, 1000 kPa
  mass density: 961 ± 0.5 kg/m3
283.15 K, 2500 kPa
  mass density: 961.9 ± 0.5 kg/m3
283.15 K, 5000 kPa
  mass density: 963.4 ± 0.5 kg/m3
283.15 K, 7500 kPa
  mass density: 964.9 ± 0.5 kg/m3
283.15 K, 10000 kPa
  mass density: 966.3 ± 0.5 kg/m3
283.15 K, 15000 kPa
  mass density: 969.1 ± 0.5 kg/m3
283.15 K, 20000 kPa
  mass density: 971.8 ± 0.5 kg/m3
283.15 K, 25000 kPa
  mass density: 974.4 ± 0.5 kg/m3
293.15 K, 100 kPa
  mass density: 952.2 ± 0.5 kg/m3
293.15 K, 1000 kPa
  mass density: 952.7 ± 0.5 kg/m3
293.15 K, 2500 kPa
  mass density: 953.7 ± 0.5 kg/m3
293.15 K, 5000 kPa
  mass density: 955.2 ± 0.5 kg/m3
293.15 K, 7500 kPa
  mass density: 956.7 ± 0.5 kg/m3
293.15 K, 10000 kPa
  mass density: 958.2 ± 0.5 kg/m3
293.15 K, 15000 kPa
  mass density: 961.1 ± 0.5 kg/m3
293.15 K, 20000 kPa
  mass density: 963.9 ± 0.5 kg/m3
293.15 K, 25000 kPa
  mass density: 966.7 ± 0.5 kg/m3
303.15 K, 100 kPa
  mass density: 943.8 ± 0.5 kg/m3
303.15 K, 1000 kPa
  mass density: 944.3 ± 0.5 kg/m3
303.15 K, 2500 kPa
  mass density: 945.3 ± 0.5 kg/m3
303.15 K, 5000 kPa
  mass density: 946.9 ± 0.5 kg/m3
303.15 K, 7500 kPa
  mass density: 948.5 ± 0.5 kg/m3
303.15 K, 10000 kPa
  mass density: 950.1 ± 0.5 kg/m3
303.15 K, 15000 kPa
  mass density: 953.1 ± 0.5 kg/m3
303.15 K, 20000 kPa
  mass density: 956.1 ± 0.5 kg/m3
303.15 K, 25000 kPa
  mass density: 959 ± 0.5 kg/m3
313.15 K, 100 kPa
  mass density: 935.3 ± 0.5 kg/m3
313.15 K, 1000 kPa
  mass density: 935.9 ± 0.5 kg/m3
313.15 K, 2500 kPa
  mass density: 936.9 ± 0.5 kg/m3
313.15 K, 5000 kPa
  mass density: 938.6 ± 0.5 kg/m3
313.15 K, 7500 kPa
  mass density: 940.3 ± 0.5 kg/m3
313.15 K, 10000 kPa
  mass density: 941.9 ± 0.5 kg/m3
313.15 K, 15000 kPa
  mass density: 945.1 ± 0.5 kg/m3
313.15 K, 20000 kPa
  mass density: 948.2 ± 0.5 kg/m3
313.15 K, 25000 kPa
  mass density: 951.2 ± 0.5 kg/m3
323.15 K, 100 kPa
  mass density: 926.6 ± 0.5 kg/m3
323.15 K, 1000 kPa
  mass density: 927.2 ± 0.5 kg/m3
323.15 K, 2500 kPa
  mass density: 928.3 ± 0.5 kg/m3
323.15 K, 5000 kPa
  mass density: 930.1 ± 0.5 kg/m3
323.15 K, 7500 kPa
  mass density: 931.8 ± 0.5 kg/m3
323.15 K, 10000 kPa
  mass density: 933.5 ± 0.5 kg/m3
323.15 K, 15000 kPa
  mass density: 936.9 ± 0.5 kg/m3
323.15 K, 20000 kPa
  mass density: 940.1 ± 0.5 kg/m3
323.15 K, 25000 kPa
  mass density: 943.2 ± 0.5 kg/m3
333.15 K, 100 kPa
  mass density: 917.8 ± 0.5 kg/m3
333.15 K, 1000 kPa
  mass density: 918.5 ± 0.5 kg/m3
333.15 K, 2500 kPa
  mass density: 919.7 ± 0.5 kg/m3
333.15 K, 5000 kPa
  mass density: 921.6 ± 0.5 kg/m3
333.15 K, 7500 kPa
  mass density: 923.4 ± 0.5 kg/m3
333.15 K, 10000 kPa
  mass density: 925.2 ± 0.5 kg/m3
333.15 K, 15000 kPa
  mass density: 928.7 ± 0.5 kg/m3
333.15 K, 20000 kPa
  mass density: 932 ± 0.5 kg/m3
333.15 K, 25000 kPa
  mass density: 935.2 ± 0.5 kg/m3
343.15 K, 100 kPa
  mass density: 909.7 ± 0.5 kg/m3
343.15 K, 1000 kPa
  mass density: 910.4 ± 0.5 kg/m3
343.15 K, 2500 kPa
  mass density: 911.6 ± 0.5 kg/m3
343.15 K, 5000 kPa
  mass density: 913.6 ± 0.5 kg/m3
343.15 K, 7500 kPa
  mass density: 915.5 ± 0.5 kg/m3
343.15 K, 10000 kPa
  mass density: 917.4 ± 0.5 kg/m3
343.15 K, 15000 kPa
  mass density: 921.1 ± 0.5 kg/m3
343.15 K, 20000 kPa
  mass density: 924.6 ± 0.5 kg/m3
343.15 K, 25000 kPa
  mass density: 928 ± 0.5 kg/m3
353.15 K, 100 kPa
  mass density: 900.9 ± 0.5 kg/m3
353.15 K, 1000 kPa
  mass density: 901.7 ± 0.5 kg/m3
353.15 K, 2500 kPa
  mass density: 903 ± 0.5 kg/m3
353.15 K, 5000 kPa
  mass density: 905 ± 0.5 kg/m3
353.15 K, 7500 kPa
  mass density: 907.1 ± 0.5 kg/m3
353.15 K, 10000 kPa
  mass density: 909.1 ± 0.5 kg/m3
353.15 K, 15000 kPa
  mass density: 912.9 ± 0.5 kg/m3
353.15 K, 20000 kPa
  mass density: 916.6 ± 0.5 kg/m3
353.15 K, 25000 kPa
  mass density: 920.1 ± 0.5 kg/m3

## CCCOCC(C)O (centres undefined) [1-propoxy-2-propanol]
283.15 K, 100 kPa
  mass density: 895.1 ± 0.7 kg/m3
283.15 K, 1000 kPa
  mass density: 895.7 ± 0.7 kg/m3
283.15 K, 2500 kPa
  mass density: 896.7 ± 0.7 kg/m3
283.15 K, 5000 kPa
  mass density: 898.5 ± 0.7 kg/m3
283.15 K, 7500 kPa
  mass density: 900.1 ± 0.7 kg/m3
283.15 K, 10000 kPa
  mass density: 901.8 ± 0.7 kg/m3
283.15 K, 15000 kPa
  mass density: 905 ± 0.7 kg/m3
283.15 K, 20000 kPa
  mass density: 908.1 ± 0.7 kg/m3
283.15 K, 25000 kPa
  mass density: 911.1 ± 0.7 kg/m3
293.15 K, 100 kPa
  mass density: 886 ± 0.7 kg/m3
293.15 K, 1000 kPa
  mass density: 886.6 ± 0.7 kg/m3
293.15 K, 2500 kPa
  mass density: 887.7 ± 0.7 kg/m3
293.15 K, 5000 kPa
  mass density: 889.6 ± 0.7 kg/m3
293.15 K, 7500 kPa
  mass density: 891.3 ± 0.7 kg/m3
293.15 K, 10000 kPa
  mass density: 893.1 ± 0.7 kg/m3
293.15 K, 15000 kPa
  mass density: 896.5 ± 0.7 kg/m3
293.15 K, 20000 kPa
  mass density: 899.8 ± 0.7 kg/m3
293.15 K, 25000 kPa
  mass density: 902.9 ± 0.7 kg/m3
303.15 K, 100 kPa
  mass density: 876.4 ± 0.7 kg/m3
303.15 K, 1000 kPa
  mass density: 877.2 ± 0.7 kg/m3
303.15 K, 2500 kPa
  mass density: 878.4 ± 0.7 kg/m3
303.15 K, 5000 kPa
  mass density: 880.3 ± 0.7 kg/m3
303.15 K, 7500 kPa
  mass density: 882.2 ± 0.7 kg/m3
303.15 K, 10000 kPa
  mass density: 884 ± 0.7 kg/m3
303.15 K, 15000 kPa
  mass density: 887.6 ± 0.7 kg/m3
303.15 K, 20000 kPa
  mass density: 891.1 ± 0.7 kg/m3
303.15 K, 25000 kPa
  mass density: 894.4 ± 0.7 kg/m3
313.15 K, 100 kPa
  mass density: 866.9 ± 0.7 kg/m3
313.15 K, 1000 kPa
  mass density: 867.6 ± 0.7 kg/m3
313.15 K, 2500 kPa
  mass density: 868.9 ± 0.7 kg/m3
313.15 K, 5000 kPa
  mass density: 871 ± 0.7 kg/m3
313.15 K, 7500 kPa
  mass density: 873 ± 0.7 kg/m3
313.15 K, 10000 kPa
  mass density: 875 ± 0.7 kg/m3
313.15 K, 15000 kPa
  mass density: 878.8 ± 0.7 kg/m3
313.15 K, 20000 kPa
  mass density: 882.4 ± 0.7 kg/m3
313.15 K, 25000 kPa
  mass density: 885.9 ± 0.7 kg/m3
323.15 K, 100 kPa
  mass density: 857.2 ± 0.7 kg/m3
323.15 K, 1000 kPa
  mass density: 858 ± 0.7 kg/m3
323.15 K, 2500 kPa
  mass density: 859.3 ± 0.7 kg/m3
323.15 K, 5000 kPa
  mass density: 861.4 ± 0.7 kg/m3
323.15 K, 7500 kPa
  mass density: 863.5 ± 0.7 kg/m3
323.15 K, 10000 kPa
  mass density: 865.6 ± 0.7 kg/m3
323.15 K, 15000 kPa
  mass density: 869.6 ± 0.7 kg/m3
323.15 K, 20000 kPa
  mass density: 873.5 ± 0.7 kg/m3
323.15 K, 25000 kPa
  mass density: 877.2 ± 0.7 kg/m3
333.15 K, 100 kPa
  mass density: 847.1 ± 0.7 kg/m3
333.15 K, 1000 kPa
  mass density: 847.9 ± 0.7 kg/m3
333.15 K, 2500 kPa
  mass density: 849.3 ± 0.7 kg/m3
333.15 K, 5000 kPa
  mass density: 851.7 ± 0.7 kg/m3
333.15 K, 7500 kPa
  mass density: 853.9 ± 0.7 kg/m3
333.15 K, 10000 kPa
  mass density: 856.1 ± 0.7 kg/m3
333.15 K, 15000 kPa
  mass density: 860.3 ± 0.7 kg/m3
333.15 K, 20000 kPa
  mass density: 864.3 ± 0.7 kg/m3
333.15 K, 25000 kPa
  mass density: 868.1 ± 0.7 kg/m3
343.15 K, 100 kPa
  mass density: 837.5 ± 0.7 kg/m3
343.15 K, 1000 kPa
  mass density: 838.4 ± 0.7 kg/m3
343.15 K, 2500 kPa
  mass density: 840 ± 0.7 kg/m3
343.15 K, 5000 kPa
  mass density: 842.4 ± 0.7 kg/m3
343.15 K, 7500 kPa
  mass density: 844.9 ± 0.7 kg/m3
343.15 K, 10000 kPa
  mass density: 847.2 ± 0.7 kg/m3
343.15 K, 15000 kPa
  mass density: 851.8 ± 0.7 kg/m3
343.15 K, 20000 kPa
  mass density: 856 ± 0.7 kg/m3
343.15 K, 25000 kPa
  mass density: 860.1 ± 0.7 kg/m3
353.15 K, 100 kPa
  mass density: 827.3 ± 0.6 kg/m3
353.15 K, 1000 kPa
  mass density: 828.3 ± 0.6 kg/m3
353.15 K, 2500 kPa
  mass density: 829.9 ± 0.7 kg/m3
353.15 K, 5000 kPa
  mass density: 832.6 ± 0.7 kg/m3
353.15 K, 7500 kPa
  mass density: 835.2 ± 0.7 kg/m3
353.15 K, 10000 kPa
  mass density: 837.7 ± 0.7 kg/m3
353.15 K, 15000 kPa
  mass density: 842.5 ± 0.7 kg/m3
353.15 K, 20000 kPa
  mass density: 847 ± 0.7 kg/m3
353.15 K, 25000 kPa
  mass density: 851.3 ± 0.7 kg/m3
